Data taken from ChEMBL document CHEMBL1151183, “New pigments from the terrestrial cyanobacterium Scytonema sp. collected on the Mitaraka inselberg, French Guyana” (J Nat Prod, 2004).
The source made the active and inactive calls.

Legend:
[1] = system: Staphylococcus aureus; assay: Antimicrobial activity against Staphylococcus aureus ATCC 6538 at 1 uM; type: functional, organism-based
[2] = system: Escherichia coli; assay: Antimicrobial activity against Escherichia coli ATCC 8739 at 1 uM; type: functional, organism-based
[3] = system: Candida tropicalis; assay: Antimicrobial activity against Candida tropicalis IP 209.73 at 1 uM; type: functional, organism-based
[4] = system: KB; assay: Cytotoxicity against human KB cells at 0.1 uM; type: functional, cell-based

Measured: Activity

COC(c1ccc(O)cc1)C1(OC)C(=O)/C(=C2/C(=O)/C(=C/c3ccc(O)cc3)c3[nH]c4ccccc4c32)c2c1[nH]c1ccccc21 (configuration not stated)
inactive: [1] | [2] | [3] | [4] Not toxic

COC(c1ccc(O)cc1)C1(OC)C(=O)/C(=C2/C(=O)C(OC)(C(OC)c3ccc(O)cc3)c3[nH]c4ccccc4c32)c2c1[nH]c1ccccc21 (configuration not stated)
inactive: [1] | [2] | [3] | [4] Not toxic

COC(=O)C1=C(c2c(/C(=C\c3ccc(O)cc3)C(=O)OC)[nH]c3ccccc23)C(=O)c2[nH]c3ccccc3c21
inactive: [1] | [2] | [3] | [4] Not toxic
